Data as given in publication PMC11833175, “Synthesis, characterization, antimicrobial, cytotoxic and carbonic anhydrase inhibition activities of multifunctional pyrazolo-1,2-benzothiazine acetamides” (Beilstein Journal of Organic Chemistry, 2025).
Values after ≈ are worked out from the molar mass of the structure shown. Read-outs that look alike come from different tables or passages of the source. Each block holds one compound with its values, some of them ahead of it.

Experiments:
[1] = Single-dose MTT cell viability assay; type: cell-based, human; settings: human, HCT-116 cells (ATCC CCL-247), 48 h, 0.1% DMSO control = 100%, value (SD)
Description: (§1) Single-dose MTT assays were performed for compounds 7a–n against the human colon cancer mammalian cell line (HCT-116, ATCC CCL-247) for evaluating their inhibition of mammalian cell metabolism. Solutions of the tested compounds were prepared in DMSO and cancer cells were treated with 10 μM doses of compounds using the apoptosis inducing standard mensacarcin (10 μM) as a positive control.
(§2) Single-dose MTT assays were performed for compounds 7a–n with the human colon cancer mammalian cell line (HCT-116, ATCC CCL-247) for evaluating the compounds’ inhibitory effects on cell viability. Stock solutions of compounds were prepared in DMSO and cancer cells were treated with 10 μM doses of each compound and mensacarcin (10 μM) as a positive control. MTT in 1X PBS was added for a final concentration of 0.5 mg/mL 48 hours post compound addition to each well. Post incubation at 37 °C was carried out for 2 h. After the removal of the growth media, purple formazan metabolic product was dissolved in DMSO. A Biotek Synergy reader (96-well plate) was used to take absorbance of all samples at 550 nm. Cell viability was calculated as the ability of the metabolically active cells to reduce tetrazolium salt MTT [3-(4,5-dimethylthiazolyl-2)-2,5-diphenyltetrazolium bromide]. Control metabolic activity shown by cells treated with 0.1% DMSO was set to 100% cell growth. […]
(§3) For cytotoxic assays, dosage of tested compounds = 10 μM; dosage of mensacarcin […]
(§4) Percent survival / % Cell viability
(§5) Samples S. aureus E.coli (SD) C. albicans (SD) HCT-116 […]
(§6) HCT-116 (Human Colorn cancer cell line) Single -dose assay for […]
(§7) Figure S44: Graph showing cell viability of compounds 7a–n against human colon carcinoma cell line (HCT-116, ATCC CCL-247), dose of tested compounds = 10 μM, dose of positive control (mensacarcin) = 10 μM.

[2] = system: human colon cancer cell line HCT-116 (ATCC CCL-247); experiment: Single-dose MTT cell viability assay; type: cell-based; settings: 10 μM
Description: as §1, §2, §3, §4, §5, §6, §7

[3] = biological target: human carbonic anhydrase CA IX (Homo sapiens, UniProt Q16790); experiment: hCA inhibition, stopped-flow CO2 hydration method, CA IX; settings: mean from three assays, errors ±5–10%
Description: (§15) In vitro assessment of all targeted pyrazolobenzothiazine scaffolds for human carbonic anhydrase (hCA) inhibition was performed adopting a stopped-flow CO2 hydration method. The enzyme inhibition assays were carried out for four types of human CA isoforms: CA I, CA II, CA IX, and XII. […] Reason for the selection of these CA isoforms was to develop a comparative relationship for inhibition selectivity between CAs (IX, XII) attributed to tumour/cancer and other CAs (I, II). […] Analyses were carried out in-house using recombinant enzymes as described.

[4] = system: susceptible S. aureus (ATCC 25923); experiment: Microbroth dilution assay (MIC90), susceptible S. aureus; type: cell-based, Staphylococcus aureus; settings: for MIC90 SA: 90% growth inhibition
Description: (§8) Microbroth dilution assays were performed for the determination of MIC (minimum inhibitory concentration, MIC90) values for compounds 7b and 7h against three different strains of Staphylococcus aureus: susceptible (ATCC 25923), methicillin-resistant (ATCC BAA-41), and multidrug-resistant (ATCC BAA-44).
(§9) The antimicrobial evaluation of the targeted compounds was carried out against five different pathogens including Staphylococcus aureus (susceptible, ATCC 25923; methicillin-resistant, ATCC BAA-41; multidrug-resistant, ATCC BAA-44), Escherichia coli ATCC 8739, and Candida albicans ATCC 90027. Reference antibiotics and final concentrations used as positive controls in these experiments were kanamycin (susceptible S. aureus, 50 μg), vancomycin (methicillin and multidrug-resistant S. aureus, 25 μg), ampicillin (E. coli, 50 μg), and amphotericin B (C. albicans, 25 μg). The final concentration of the tested compounds was 125 μg/mL for microbroth single-dose assays. Dimethyl sulfoxide was used at a final concentration of 0.1% as negative control. […] American type culture collection (ATCC, Manassas, VA, USA) has provided all microbial strains used in above experiments.

[5] = biological target: human carbonic anhydrase CA XII (Homo sapiens, UniProt O43570); experiment: hCA inhibition, stopped-flow CO2 hydration method, CA XII; settings: mean from three assays, errors ±5–10%
Chain of human carbonic anhydrase CA XII (O43570 25-354): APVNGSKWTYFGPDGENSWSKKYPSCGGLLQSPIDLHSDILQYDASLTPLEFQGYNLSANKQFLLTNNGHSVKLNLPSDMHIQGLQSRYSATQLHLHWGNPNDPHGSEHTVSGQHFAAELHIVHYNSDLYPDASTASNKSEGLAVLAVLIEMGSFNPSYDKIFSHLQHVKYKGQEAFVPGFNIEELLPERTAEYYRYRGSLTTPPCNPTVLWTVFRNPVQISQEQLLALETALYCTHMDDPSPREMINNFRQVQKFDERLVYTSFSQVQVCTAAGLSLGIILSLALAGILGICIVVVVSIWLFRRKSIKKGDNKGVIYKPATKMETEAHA
Description: as §15

[6] = system: Candida albicans (ATCC 90027); experiment: Microbroth single-dose antimicrobial assay, C. albicans; type: cell-based; settings: C. albicans ATCC 90027, value (SD); for percent survival at 125 µg/mL: ATCC90027, single dose 125 μg/mL
Description: (§10) Microbroth single dose antimicrobial assays were performed against different pathogens including susceptible Staphylococcus aureus (ATCC 25923), Escherichia coli (ATCC 8739), and Candida albicans (ATCC 90027). Pathogens were treated with 125 μg/mL of tested compounds in duplicate.
as §9
(§11) Antimicrobial Single-dose assay for compounds 7(a-n) against
(§12) S. aureus E. coli C. albicans
(§13) Figure S43: Graph showing results of antimicrobial single-dose microbroth assays of compounds 7a–n, dose of tested compounds = 125 μg/mL, control antibiotic s used: kanamycin = 50 μg/mL (Staphylococcus aureus ATCC 25923), ampicillin = 50 μg/mL (Escherichia coli ATCC 8739), and amphotericin B = 25 μg/mL (Candida albicans ATCC 90027). Dimethylsulfoxide ( DMSO) was used as the negative control at 1.25% […]
(§14) Table S1: Results of single-dose antimicrobial and cytotoxic assays for compounds 7a–n; dosage of tested compounds = 125 μg/mL; antibiotic control dosage (kanamycin = 50 μg/mL (Staphylococcus aureus ATCC 25923), ampicillin = 50 μg/mL (Escherichia coli ATCC 8739), and amphotericin B = 25 μg/mL (Candida albicans ATCC 90027).
as §3, §4, §5

[7] = system: Staphylococcus aureus (ATCC 25923); experiment: Microbroth single-dose antimicrobial assay, susceptible S. aureus; type: cell-based; settings: single dose 125 μg/mL; for percent survival of S. aureus at 125 µg/mL: Staphylococcus aureus, ATCC25923, S. aureus ATCC 25923, value (SD)
Description: as §10, §9, §11, §12, §13, §14, §3, §4, §5

[8] = biological target: human carbonic anhydrase CA I (Homo sapiens, UniProt P00915); experiment: hCA inhibition, stopped-flow CO2 hydration method, CA I
Chain of human carbonic anhydrase CA I (P00915 whole entry): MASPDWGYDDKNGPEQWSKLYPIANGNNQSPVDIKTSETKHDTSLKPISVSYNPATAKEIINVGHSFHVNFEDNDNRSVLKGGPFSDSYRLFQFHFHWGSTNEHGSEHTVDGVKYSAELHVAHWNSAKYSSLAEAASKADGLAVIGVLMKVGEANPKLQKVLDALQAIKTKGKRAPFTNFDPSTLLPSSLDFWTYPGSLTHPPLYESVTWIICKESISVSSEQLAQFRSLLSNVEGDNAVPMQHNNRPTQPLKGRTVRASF
Description: as §15

[9] = system: Escherichia coli (ATCC 8739); experiment: Microbroth single-dose antimicrobial assay, E. coli; type: cell-based; settings: ATCC8739, single dose 125 μg/mL, E. coli ATCC 8739, value (SD)
Description: as §10, §9, §11, §12, §13, §14, §3, §4, §5

[10] = system: multidrug-resistant S. aureus (ATCC BAA-44); experiment: Microbroth dilution assay (MIC90), multidrug-resistant S. aureus; type: cell-based, Staphylococcus aureus; settings: for MIC90: Staphylococcus aureus
Description: as §8, §9

[11] = system: methicillin-resistant S. aureus (ATCC BAA-41); experiment: Microbroth dilution assay (MIC90), methicillin-resistant S. aureus; type: cell-based, Staphylococcus aureus; settings: for MIC90: Staphylococcus aureus, ATCC BAA-41 / MRSA, read-out: MIC90 MRSA
Description: as §8, §9

[12] = biological target: human carbonic anhydrase CA II (Homo sapiens, UniProt P00918); experiment: hCA inhibition, stopped-flow CO2 hydration method, CA II; settings: mean from three assays, errors ±5–10%
Description: as §15

[13] = methicillin-resistant S. aureus ATCC BAA-41, 90% growth inhibition
[14] = read-out: Ki for targeted CAs, IX
[15] = read-out: Ki for targeted CAs, XII
[16] = read-out: Ki for targeted CAs, I, mean from three assays, errors ±5–10%
[17] = read-out: Ki for targeted CAs, II

- Ki ([3]; Ki for targeted CAs, IX): 90.8 µM
- MIC90 SA [4]: 8 µg/mL (≈ 17.3 µM)
- MIC90 ([4]; Staphylococcus aureus, ATCC25923, 90% growth inhibition): 8 µg/mL (≈ 17.3 µM)
- Ki ([5]; Ki for targeted CAs, XII): 91.7 µM
- Ki [8]: > 100 µM
- MIC90 ([10]; ATCCBAA44, multidrug-resistant S. aureus ATCC BAA-44, 90% growth inhibition, read-out: MIC90 MDRSA): 8 µg/mL (≈ 17.3 µM)
- MIC90 MDRSA ([10]; multidrug-resistant S. aureus ATCC BAA-44, 90% growth inhibition): 8 µg/mL (≈ 17.3 µM)
- MIC90 [11, 13]: 8 µg/mL (≈ 17.3 µM)
- MIC90 MRSA [11, 13]: 8 µg/mL (≈ 17.3 µM)
- Ki ([12]; Ki for targeted CAs, II): 95.2 µM
Structure (SMILES): CN1c2c(O)nn(CC(=O)Nc3ccc(Br)cc3)c2-c2ccccc2S1(=O)=O [Compound 7h]
- viability at 48 h, 10 µM [1]: > 100%
- effect on HCT-116 cell viability (in words) [2]: no significant decrease in mammalian cell viability
- percent survival at 125 µg/mL [6]: 65.1%
- percent survival of S. aureus at 125 µg/mL [7]: 16.7%
- antibacterial activity against susceptible S. aureus (in words) ([7]; duplicate): significant antibacterial activity
- percent survival at 125 µg/mL [9]: > 100%

- Ki ([3]; Ki for targeted CAs, IX): > 100 µM
- Ki ([5]; Ki for targeted CAs, XII): > 100 µM
- Ki [8]: > 100 µM
- Ki ([12]; Ki for targeted CAs, II): > 100 µM
Structure (SMILES): COc1ccc(NC(=O)COc2nn(CC(=O)Nc3ccc(OC)cc3)c3c2N(C)S(=O)(=O)c2ccccc2-3)cc1 [Compound 7j]
- viability at 48 h, 10 µM [1]: > 100%
- percent survival at 125 µg/mL [6]: 99.5%
- percent survival of S. aureus at 125 µg/mL [7]: > 100%
- percent survival at 125 µg/mL [9]: > 100%

- MIC90 SA [4]: <1 µg/mL
Structure (SMILES): NC[C@H]1O[C@H](O[C@H]2[C@H](O)[C@@H](O[C@H]3O[C@H](CO)[C@@H](O)[C@H](N)[C@H]3O)[C@H](N)C[C@@H]2N)[C@H](O)[C@@H](O)[C@@H]1O [Kanamycin, kanamycin, reference compound]

- Ki [3, 14]: > 100 µM
- Ki [5, 15]: > 100 µM
- Ki [8, 16]: > 100 µM
- Ki [12, 17]: > 100 µM
Structure (SMILES): CN1c2c(OCC(=O)NC3CCCCC3)nn(CC(=O)NC3CCCCC3)c2-c2ccccc2S1(=O)=O [Compound 7n]

- Ki [3, 14]: > 100 µM
- Ki [5, 15]: > 100 µM
- Ki [8, 16]: > 100 µM
- Ki [12, 17]: > 100 µM
Structure (SMILES): Cc1ccccc1NC(=O)COc1nn(CC(=O)Nc2ccccc2C)c2c1N(C)S(=O)(=O)c1ccccc1-2 [Compound 7l]
- effect on HCT-116 cell viability (in words) [2]: inhibited cell viability

Structure (SMILES): C[C@@H]1[C@H](O)[C@@H](C)/C=C/C=C/C=C/C=C/C=C/C=C/C=C/[C@H](O[C@@H]2O[C@H](C)[C@@H](O)[C@H](N)[C@@H]2O)C[C@@H]2O[C@](O)(C[C@@H](O)C[C@@H](O)[C@H](O)CC[C@@H](O)C[C@@H](O)CC(=O)O[C@H]1C)C[C@H](O)[C@H]2C(=O)O [Amphotericin B, amphotericin B, reference compound]
- percent survival at 25 µg/mL ([6]; ATCC90027, antibiotic control 25 μg/mL): 4.71%

Structure (SMILES): CN[C@H](CC(C)C)C(=O)N[C@H]1C(=O)N[C@@H](CC(N)=O)C(=O)N[C@H]2C(=O)N[C@H]3C(=O)N[C@H](C(=O)N[C@H](C(=O)O)c4cc(O)cc(O)c4-c4cc3ccc4O)[C@H](O)c3ccc(c(Cl)c3)Oc3cc2cc(c3O[C@@H]2O[C@H](CO)[C@@H](O)[C@H](O)[C@H]2O[C@H]2C[C@](C)(N)[C@H](O)[C@H](C)O2)Oc2ccc(cc2Cl)[C@H]1O [vancomycin, reference compound]
- MIC90 ([10]; ATCCBAA44, read-out: MIC90 MDRSA): < 1 µg/mL
- MIC90 [11]: < 1 µg/mL
